The text below walks through data of patent publication US12485080B2, “Cosmetic compositions” (Mary Kay Inc., priority 2011, dated 2025).

Experiment [1] relates to hyaluronic acid. Put plainly: Hyaluronic acid production/secretion in cultured human dermal fibroblasts. The class given is cell-based. Particulars: compared to an untreated control. The method, then:
In this study, tetradecyl aminobutyroylvalylamino butyric urea trifluoroacetate (SYN-HYCAN™ from Pentapharm/DSM) was replaced with Alpinia galanga leaf extract (HYALUFIX™ GL from BASF). Therefore, the combination of tripeptide-1 (KOLLAREN® from Unipex/Lucas Meyer), Centella asiatica stem cells (CENTELLA ASIATIC STEMS G™ from Ricerche Biotecnologiche), and Alpinia galanga leaf extract (HYALUFIX™ GL from BASF) was tested on skin at various levels in various dermatologically acceptable vehicles. The following includes data concerning these tests. Further, an in vitro assay was performed on Alpinia galanga leaf extract using cultured human dermal fibroblasts.

Experiment [2] concerns collagen III. In words: Immunofluorescent staining of cultured human fibroblasts for dermal matrix proteins: collagen III. Particulars: immunofluorescent antibodies, compared to untreated controls. The class given is cell-based.
Experiment [3] has as its system fibronectin. In words: Secretion of fibronectin. Particulars: compared to untreated controls. The class given is cell-based.
In experiment [4] the test system is collagen I. Put plainly: Immunofluorescent staining of cultured human fibroblasts for dermal matrix proteins: collagen I. The class given is cell-based. Conditions: immunofluorescent antibodies, compared to untreated controls.
Experiment [5] relates to laminin. Put plainly: Secretion of laminin. The class given is cell-based. Particulars: compared to untreated controls.
Experiment [6] has as its system elastin fibers. Put plainly: Immunofluorescence study of elastin fibers. The class given is cell-based, human. Conditions: immunofluorescence studies.

For “Tetradecyl aminobutyroylvalylamino butyric urea trifluoroacetate”, in experiment [1], the “increase in production of hyaluronic acid secretion” value worked out at 64.2%.

As for Tripeptide-1, in experiment [2], the “increase in collagen III” value was 105%. The “increase in secretion of fibronectin” value in experiment [3] was 105%. In addition, the “increase in production of hyaluronic acid secretion” value in experiment [1] came to 118%. Besides, the “increase in collagen I” value in experiment [4] amounted to 305%. Moreover, the “increase in secretion of laminin” value in experiment [5] turned out to be 85%. The “increase in elastin fibers” value in experiment [6] came out at 15%.
